According to ChEMBL document CHEMBL1255264, “Mechanism-based pharmacokinetic-pharmacodynamic models of in vitro fungistatic and fungicidal effects against Candida albicans” (Antimicrob Agents Chemother, 2008):
≈ marks a conversion by molar mass, not a printed value.

Tests used:
[1] = test system: Candida albicans; assay: Antifungal activity against Candida albicans ATCC 3153 assessed as maximum killing rate in vitro pharmacokinetic-pharmacodynamic model; type: functional
[2] = test system: Candida albicans; assay: Antifungal activity against Candida albicans ATCC 3153 assessed as death stimulation in vitro pharmacokinetic-pharmacodynamic model; type: functional, organism-based
[3] = test system: Candida albicans; assay: Antifungal activity against Candida albicans ATCC 3153 after 48 hrs; type: functional; details: ATCC 3153, 48 h
[4] = test system: Candida albicans; assay: Antifungal activity against Candida albicans ATCC 3153 in vitro pharmacokinetic-pharmacodynamic model; type: functional, organism-based

`CC[C@H](C)C[C@H](C)CCCCCCCCC(=O)N[C@H]1C[C@@H](O)[C@@H](NCCN)NC(=O)[C@@H]2[C@@H](O)CCN2C(=O)[C@H]([C@H](O)CCN)NC(=O)[C@H]([C@H](O)[C@@H](O)c2ccc(O)cc2)NC(=O)[C@@H]2C[C@@H](O)CN2C(=O)[C@H]([C@@H](C)O)NC1=O` [CASPOFUNGIN] showed an Emax [1] of 8.04 ×10⁻¹ /hr, an EC50 [2] of 0.000251 µg/mL (≈ 0.00023 µM) and an MIC [3] of 0.015 µg/mL (≈ 0.0137 µM).

Compound `OC(Cn1cncn1)(Cn1cncn1)c1ccc(F)cc1F` [FLUCONAZOLE] has an IC50 [4] of 0.0929 µg/mL (≈ 0.303 µM).
